This data set in a line: Autohydrolysis of ε-CL (pH-STAT titration). Type of data set: physicochemical. The note with it: Distilled water (pH 7.0), 30 °C, based on 100 mM ε-CL as 100 %. Here is the method:
All measurements were done with the 877 Titrino Plus from Metrohm (Filderstadt, Germany).
Using the pH-STAT, the autohydrolysis of ε-CL at different temperatures and pH values was determined. Furthermore, it was investigated whether CAL-A is able to hydrolyze ε-CL in an aqueous reaction system. The Bacillus subtilis esterase 2 (BS2) served as positive control in the hydrolysis of ε-caprolactone to 6-hydroxycaproic acid leading to a measureable pH change in the pH-STAT.
For the determination of autohydrolysis, 100 mM ε-CL (Sigma-Aldrich, St- Louis, United States; 97 % purity) were dissolved in 20 ml Tris-HCl buffer (20 mM, pH 7.5) or 20 ml distilled water. The measurement was carried out at 25°C and 30°C over 15 min. For titration, 0.1 N NaOH was used to maintain the pH value constant.

Each structure is given as a SMILES string.

Take `O=C1CCCCCO1` [ε-CL, ε-caprolactone]: the “Conversion [%] (autohydrolysis)” value is listed as 1.075 ± 0,00090%.

The values above are taken from EP2899280A1, “Process for the enzymatic production of oligo-/polyesters” (Ernst-Moritz-Arndt-Universität Greifswald, priority 2014, dated 2015).
